# Reference: ChEMBL document CHEMBL3045535, “Evaluation of lufenuron as a chemosterilant against fruit flies of the genus Anastrepha (Diptera: Tephritidae)” (2010)
# The source made the active and inactive calls. The rule behind the calls is not given here.
# Legend:
# Anastrepha serpentina [1] = test: Reduction of fertility in 7 days old adult of Anastrepha serpentina assessed as reduction of egg hatching at 0.5 mg/g treated with diet measured after 1 day oviposition; assay type: functional; parameters: scale not given: the % may be the effect or the level left
# Anastrepha serpentina [2] = test: Effect on fertility in 7 days old adult male of Anastrepha serpentina at 30 mg/g treated with diet after 24 hr in presence of untreated adult female of Anastrepha serpentina; assay type: functional, organism-based
smiles,measurement,setting,value
O=C(NC(=O)c1c(F)cccc1F)Nc1cc(Cl)c(OC(F)(F)C(F)C(F)(F)F)cc1Cl (racemic) [LUFENURON],Activity,Anastrepha serpentina [1],88.3%
same,Activity,Anastrepha serpentina [2],inactive
